Measured values reported in the supplement of paper PMC10307832.

Columns and labels:
Experiment in all cases: relative viability (nuclei count vs DMSO), 5 days (fraction); higher = more cells survive
Avagacestat = compound: NC(=O)[C@@H](CCC(F)(F)F)N(Cc1ccc(-c2ncon2)cc1F)S(=O)(=O)c1ccc(Cl)cc1 [Avagacestat]
Summary of the method: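 MetaXpress counted nuclei in 4× images of lung cancer cell lines that had been fixed, permeabilised and Hoechst-stained in one step. Before that, cells in 1536-well plates were kept overnight at 37 °C, pinned with five √10-spaced library-drug doses on vehicle-anchored plates, and cultured 5 days without medium change. Viability takes treated-well nuclei over vehicle-well nuclei and uses the median across plates. Plates were accepted only at control CV below 25% and at least one doubling.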

Avagacestat + Trametinib = compound: NC(=O)[C@@H](CCC(F)(F)F)N(Cc1ccc(-c2ncon2)cc1F)S(=O)(=O)c1ccc(Cl)cc1 [Avagacestat] + CC(=O)Nc1cccc(-n2c(=O)n(C3CC3)c(=O)c3c(Nc4ccc(I)cc4F)n(C)c(=O)c(C)c32)c1 [Trametinib] (partner 0.02 µM)
Summary of the method: (§1)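 Relative viability is defined as nuclei in treated wells over nuclei in vehicle wells. Duplicate plates were run and medians reported. Lung cancer cell lines in 1536-well plates were dosed by pin tool one day after seeding, with one drug or with a fixed anchor-drug dose plus five library-drug doses (not always all listed) in √10 steps, and nuclei were counted after 5 days.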

Avagacestat + OSI-027 = compound: NC(=O)[C@@H](CCC(F)(F)F)N(Cc1ccc(-c2ncon2)cc1F)S(=O)(=O)c1ccc(Cl)cc1 [Avagacestat] + COc1cccc2cc(-c3nc([C@H]4CC[C@H](C(=O)O)CC4)n4ncnc(N)c34)[nH]c12 [OSI-027] (partner 0.5 µM)
Summary of the method: as §1

Avagacestat + Phenformin = compound: NC(=O)[C@@H](CCC(F)(F)F)N(Cc1ccc(-c2ncon2)cc1F)S(=O)(=O)c1ccc(Cl)cc1 [Avagacestat] + N=C(N)NC(=N)NCCc1ccccc1 [Phenformin] (partner 250 µM)
Summary of the method: as §1

| Cell Line | relative viability (Avagacestat; 0.08 µM) | relative viability (Avagacestat; 0.253 µM) | relative viability (Avagacestat; 0.8 µM) | relative viability (Avagacestat; 2.53 µM) | relative viability (Avagacestat; 8 µM) | relative viability (Avagacestat + Trametinib; first compound 0.08 µM) | relative viability (Avagacestat + Trametinib; first compound 0.253 µM) | relative viability (Avagacestat + Trametinib; first compound 0.8 µM) | relative viability (Avagacestat + Trametinib; first compound 2.53 µM) | relative viability (Avagacestat + Trametinib; first compound 8 µM) | relative viability (Avagacestat + OSI-027; first compound 0.08 µM) | relative viability (Avagacestat + OSI-027; first compound 0.253 µM) | relative viability (Avagacestat + OSI-027; first compound 0.8 µM) | relative viability (Avagacestat + OSI-027; first compound 2.53 µM) | relative viability (Avagacestat + OSI-027; first compound 8 µM) | relative viability (Avagacestat + Phenformin; first compound 0.08 µM) | relative viability (Avagacestat + Phenformin; first compound 0.253 µM) | relative viability (Avagacestat + Phenformin; first compound 0.8 µM) | relative viability (Avagacestat + Phenformin; first compound 2.53 µM) | relative viability (Avagacestat + Phenformin; first compound 8 µM) |
| --- | --- | --- | --- | --- | --- | --- | --- | --- | --- | --- | --- | --- | --- | --- | --- | --- | --- | --- | --- | --- |
| RERF-LC-KJ | 1.07 | 1.1 | 1.04 | 0.945 | 0.856 | 0.917 | 0.853 | 0.89 | 0.81 | 0.84 | 0.57 | 0.65 | 0.695 | 0.54 | 0.547 | 0.435 | 0.495 | 0.412 | 0.431 | 0.367 |
| SK-LU-1 | 1.21 | 1.03 | 1.02 | 0.83 | 0.908 | 0.524 | 0.457 | 0.516 | 0.467 | 0.382 | 0.379 | 0.307 | 0.297 | 0.29 | 0.248 | 0.539 | 0.499 | 0.523 | 0.353 | 0.474 |
| SK-MES-1 | 1.14 | 1.08 | 1.06 | 0.92 | 0.889 | 0.564 | 0.567 | 0.522 | 0.515 | 0.494 | 0.601 | 0.675 | 0.728 | 0.473 | 0.448 | 0.739 | 0.827 | 0.721 | 0.635 | 0.606 |
| SW 1573 | 1.14 | 1.14 | 1.06 | 0.972 | 0.895 | 0.75 | 0.679 | 0.519 | 0.629 | 0.462 | 0.8 | 0.654 | 0.806 | 0.61 | 0.446 | 0.498 | 0.431 | 0.366 | 0.369 | 0.341 |
| UMC-11 | 1.04 | 1.07 | 1.1 | 1.02 | 1.06 | 0.752 | 0.686 | 0.799 | 0.789 | 0.675 | 0.52 | 0.454 | 0.503 | 0.461 | 0.465 | 0.36 | 0.352 | 0.364 | 0.341 | 0.321 |
